Experimental data reported in article PMC11579512, “Deoxybouvardin-glucoside induces apoptosis in non-small cell lung cancer cells by targeting EGFR/MET and AKT signaling pathway” (EXCLI Journal, 2024).

What was measured:
Type in all cases: cell-based, human
[1] = test system: HCC827GR cells; assay: Cell cycle distribution (Muse, PI), HCC827GR; details: 48 h
Method: (§1) HaCaT cells were grown in DMEM, whereas HCC827 and HCC827GR cells were grown in RPMI 1640. All culture media were supplemented with FBS (10 %) and P/S (1 %), and the cells were grown at 37 °C in 5 % CO2.
(§2) Cell cycle distribution analysis was performed using a Muse™ Cell Cycle Kit (MCH100106, Merck Millipore, Billerica, MA) based on propidium iodide (PI) staining. The cells were collected, fixed in 70 % ethanol overnight at -20 °C, and then stained with a Muse™ Cell Cycle Reagent at RT for 30 min in the dark. The cell cycle distribution was measured using a Muse™ Cell Analyzer (Merck Millipore).

[2] = test system: HCC827 cells; assay: Cell cycle distribution (Muse, PI), HCC827; details: 48 h
Method: as §1, §2

[3] = test system: caspase-3; assay: Immunoblot caspase-3 in HCC827 and HCC827GR cells; details: for caspase3 protein Ratio: DBG 0 nM = 1.00
Method: as §1
(§3) Cells were lysed in RIPA buffer, and protein concentration was determined using a Bio-Rad DC Protein Assay kit (Bio-Rad, Hercules, CA, USA). Protein samples from the cell lysates were resolved by sodium dodecyl sulfate-polyacrylamide gel electrophoresis and then transferred onto polyvinylidene fluoride membranes. The membranes were blocked with 3 % or 5 % skim milk and then incubated at 4 °C overnight with the indicated primary antibodies, followed by the corresponding horseradish peroxidase-conjugated secondary antibodies at RT for 2 h. Protein bands were visualized using western blotting luminol reagent solution and ImageQuant LAS 500 (GE Healthcare, Uppsala, Sweden). The density of the bands was quantified using ImageJ software (NIH, Bethesda, MD, USA).

[4] = test system: HCC827GR cells; assay: MTT viability after NAC pretreatment, HCC827GR; details: for cell viability (relative to untreated = 100.00): HCC827GR
Method: All culture media were supplemented with FBS (10 %) and P/S (1 %), and the cells were grown at 37 °C in 5 % CO2.
The cells were treated with MTT and incubated for 2 h. The supernatants were removed, and the remaining formazan crystals were dissolved in DMSO before absorbance measurement at 570 nm using a Multiscan GO spectrophotometer (Thermo Fisher Scientific, Vantaa, Finland).

[5] = test system: cytochrome c (mitochondrial); assay: Immunoblot mitochondrial cytochrome c in HCC827 and HCC827GR cells; details: for cyto c (mitosol) protein Ratio: DBG 0 nM = 1.00
Method: as §3
The cells were suspended in plasma membrane extraction buffer [250 mM sucrose, 10 mM HEPES (pH 8.0), 10 mM KCl, 1.5 mM MgCl2• 6H2O, 1 mM EGTA, 1 mM EDTA, 0.1 mM PMSF, 0.01 mg/ml aprotinin, and 0.01 mg/ml leupeptin], and 0.1 % digitonin was added for vortexing (1 min). The supernatant was collected as the cytosolic fraction. The pellet was resuspended in plasma membrane extraction buffer containing 0.5 % Triton X-100. The lysates were centrifuged at 13,000 rpm for 30 min to separate the mitochondrial fraction.

Structure (SMILES): COc1ccc(C[C@H]2C(=O)N[C@@H](C)C(=O)N(C)[C@H]3Cc4ccc(cc4)Oc4cc(ccc4O[C@@H]4O[C@H](CO)[C@@H](O)[C@H](O)[C@H]4O)C[C@@H](C(=O)N[C@H](C)C(=O)N[C@@H](C)C(=O)N2C)N(C)C3=O)cc1 [DBG, deoxybouvardin glucoside]
- G0/G1 distribution ([1]; DBG 3 nM, mean of 3 samples): 53.10
- G2/M distribution ([1]; DBG 3 nM, mean of 3 samples): 37.67
- S distribution ([1]; DBG 3 nM, mean of 3 samples): 9.23
- G0/G1 distribution ([1]; DBG 3 nM, sample 1): 51.80
- G2/M distribution ([1]; DBG 3 nM, sample 1): 39.10
- S distribution ([1]; DBG 3 nM, sample 1): 9.10
- G0/G1 distribution ([1]; DBG 3 nM, sample 2): 53.80
- G2/M distribution ([1]; DBG 3 nM, sample 2): 36.60
- S distribution ([1]; DBG 3 nM, sample 2): 9.60
- G0/G1 distribution ([1]; DBG 3 nM, sample 3): 53.70
- G2/M distribution ([1]; DBG 3 nM, sample 3): 37.30
- S distribution ([1]; DBG 3 nM, sample 3): 9.00
- G0/G1 distribution ([1]; DBG 6 nM, mean of 3 samples): 54.77
- G2/M distribution ([1]; DBG 6 nM, mean of 3 samples): 36.33
- S distribution ([1]; DBG 6 nM, mean of 3 samples): 8.90
- G0/G1 distribution ([1]; DBG 6 nM, sample 1): 54.30
- G2/M distribution ([1]; DBG 6 nM, sample 1): 36.50
- S distribution ([1]; DBG 6 nM, sample 1): 9.20
- G0/G1 distribution ([1]; DBG 6 nM, sample 2): 53.10
- G2/M distribution ([1]; DBG 6 nM, sample 2): 37.80
- S distribution ([1]; DBG 6 nM, sample 2): 9.10
- G0/G1 distribution ([1]; DBG 6 nM, sample 3): 56.90
- G2/M distribution ([1]; DBG 6 nM, sample 3): 34.70
- S distribution ([1]; DBG 6 nM, sample 3): 8.40
- G0/G1 distribution ([1]; DBG 12 nM, mean of 3 samples): 56.93
- G2/M distribution ([1]; DBG 12 nM, mean of 3 samples): 34.27
- S distribution ([1]; DBG 12 nM, mean of 3 samples): 8.77
- G0/G1 distribution ([1]; DBG 12 nM, sample 1): 57.50
- G2/M distribution ([1]; DBG 12 nM, sample 1): 33.40
- S distribution ([1]; DBG 12 nM, sample 1): 9.00
- G0/G1 distribution ([1]; DBG 12 nM, sample 2): 56.20
- G2/M distribution ([1]; DBG 12 nM, sample 2): 35.10
- S distribution ([1]; DBG 12 nM, sample 2): 8.70
- G0/G1 distribution ([1]; DBG 12 nM, sample 3): 57.10
- G2/M distribution ([1]; DBG 12 nM, sample 3): 34.30
- S distribution ([1]; DBG 12 nM, sample 3): 8.60
- increase in proportion of cells at G1 phase ([1]; concentration not given): 2.36%
- G0/G1 distribution ([2]; DBG 3 nM, mean of 3 samples): 61.33
- G2/M distribution ([2]; DBG 3 nM, mean of 3 samples): 31.20
- S distribution ([2]; DBG 3 nM, mean of 3 samples): 7.47
- G0/G1 distribution ([2]; DBG 3 nM, sample 1): 60.80
- G2/M distribution ([2]; DBG 3 nM, sample 1): 31.60
- S distribution ([2]; DBG 3 nM, sample 1): 7.60
- G0/G1 distribution ([2]; DBG 3 nM, sample 2): 61.70
- G2/M distribution ([2]; DBG 3 nM, sample 2): 31.40
- S distribution ([2]; DBG 3 nM, sample 2): 6.90
- G0/G1 distribution ([2]; DBG 3 nM, sample 3): 61.50
- G2/M distribution ([2]; DBG 3 nM, sample 3): 30.60
- S distribution ([2]; DBG 3 nM, sample 3): 7.90
- G0/G1 distribution ([2]; DBG 6 nM, mean of 3 samples): 64.27
- G2/M distribution ([2]; DBG 6 nM, mean of 3 samples): 28.30
- S distribution ([2]; DBG 6 nM, mean of 3 samples): 7.43
- G0/G1 distribution ([2]; DBG 6 nM, sample 1): 65.20
- G2/M distribution ([2]; DBG 6 nM, sample 1): 27.50
- S distribution ([2]; DBG 6 nM, sample 1): 7.30
- G0/G1 distribution ([2]; DBG 6 nM, sample 2): 63.60
- G2/M distribution ([2]; DBG 6 nM, sample 2): 28.30
- S distribution ([2]; DBG 6 nM, sample 2): 8.10
- G0/G1 distribution ([2]; DBG 6 nM, sample 3): 64.00
- G2/M distribution ([2]; DBG 6 nM, sample 3): 29.10
- S distribution ([2]; DBG 6 nM, sample 3): 6.90
- G0/G1 distribution ([2]; DBG 12 nM, mean of 3 samples): 74.37
- G2/M distribution ([2]; DBG 12 nM, mean of 3 samples): 19.80
- S distribution ([2]; DBG 12 nM, mean of 3 samples): 5.83
- G0/G1 distribution ([2]; DBG 12 nM, sample 1): 73.00
- G2/M distribution ([2]; DBG 12 nM, sample 1): 21.00
- S distribution ([2]; DBG 12 nM, sample 1): 6.00
- G0/G1 distribution ([2]; DBG 12 nM, sample 2): 75.10
- G2/M distribution ([2]; DBG 12 nM, sample 2): 19.40
- S distribution ([2]; DBG 12 nM, sample 2): 5.50
- G0/G1 distribution ([2]; DBG 12 nM, sample 3): 75.00
- G2/M distribution ([2]; DBG 12 nM, sample 3): 19.00
- S distribution ([2]; DBG 12 nM, sample 3): 6.00
- caspase3 protein/actin ([3]; HCC827, DBG 3 nM, DBG 0 nM 0.88): 0.62
- caspase3 protein Ratio ([3]; HCC827, DBG 3 nM): 0.71
- caspase3 protein/actin ([3]; HCC827, DBG 6 nM, DBG 0 nM 0.88): 0.55
- caspase3 protein Ratio ([3]; HCC827, DBG 6 nM): 0.62
- caspase3 protein/actin ([3]; HCC827, DBG 12 nM, DBG 0 nM 0.88): 0.14
- caspase3 protein Ratio ([3]; HCC827, DBG 12 nM): 0.16
- caspase3 protein/actin ([3]; HCC827GR, DBG 3 nM, DBG 0 nM 0.55): 0.60
- caspase3 protein Ratio ([3]; HCC827GR, DBG 3 nM): 1.11
- caspase3 protein/actin ([3]; HCC827GR, DBG 6 nM, DBG 0 nM 0.55): 0.48
- caspase3 protein Ratio ([3]; HCC827GR, DBG 6 nM): 0.87
- caspase3 protein/actin ([3]; HCC827GR, DBG 12 nM, DBG 0 nM 0.55): 0.30
- caspase3 protein Ratio ([3]; HCC827GR, DBG 12 nM): 0.54
- level of whole caspase-3 ([3]; HCC827 and HCC827GR, DBG): decreased
- cell viability (relative to untreated = 100.00) ([4]; DBG 12 nM, mean of 3): 38.91
- cell viability (relative to untreated = 100.00) ([4]; DBG 12 nM, replicate 1): 39.88
- cell viability (relative to untreated = 100.00) ([4]; DBG 12 nM, replicate 2): 38.76
- cell viability (relative to untreated = 100.00) ([4]; DBG 12 nM, replicate 3): 38.08
- cell viability (relative to untreated = 100.00) ([4]; NAC 4 mM + DBG 12 nM, mean of 3): 99.25
- cell viability (relative to untreated = 100.00) ([4]; NAC 4 mM + DBG 12 nM, replicate 1): 100.78
- cell viability (relative to untreated = 100.00) ([4]; NAC 4 mM + DBG 12 nM, replicate 2): 98.32
- cell viability (relative to untreated = 100.00) ([4]; NAC 4 mM + DBG 12 nM, replicate 3): 98.66
- anticancer activity of DBG after NAC pretreatment ([4]; NAC 4 mM, 3 h, DBG 48 h): decreased
- cytotoxicity after NAC pretreatment ([4]; NAC 4 mM, DBG 12 nM): a little, if any, cytotoxicity only at 12 nM
- cyto c (mitosol) cyto c/COX4/actin (A) ([5]; HCC827, DBG 3 nM, DBG 0 nM 119.45): 66.38
- cyto c (mitosol) protein Ratio ([5]; HCC827, DBG 3 nM): 0.56
- cyto c (mitosol) cyto c/COX4/actin (A) ([5]; HCC827, DBG 6 nM, DBG 0 nM 119.45): 25.00
- cyto c (mitosol) protein Ratio ([5]; HCC827, DBG 6 nM): 0.21
- cyto c (mitosol) cyto c/COX4/actin (A) ([5]; HCC827, DBG 12 nM, DBG 0 nM 119.45): 23.24
- cyto c (mitosol) protein Ratio ([5]; HCC827, DBG 12 nM): 0.19
- cyto c (mitosol) cyto c/COX4/actin (A) ([5]; HCC827GR, DBG 3 nM, DBG 0 nM 168.86): 137.25
- cyto c (mitosol) protein Ratio ([5]; HCC827GR, DBG 3 nM): 0.81
- cyto c (mitosol) cyto c/COX4/actin (A) ([5]; HCC827GR, DBG 6 nM, DBG 0 nM 168.86): 47.89
- cyto c (mitosol) protein Ratio ([5]; HCC827GR, DBG 6 nM): 0.28
- cyto c (mitosol) cyto c/COX4/actin (A) ([5]; HCC827GR, DBG 12 nM, DBG 0 nM 168.86): 7.39
- cyto c (mitosol) protein Ratio ([5]; HCC827GR, DBG 12 nM): 0.0438
